Test results: ChEMBL document CHEMBL1201862, “PubChem BioAssay data set” (2004)
The source made the active and inactive calls.

Legend:
Large T antigen = Large T antigen (Simian virus 40, UniProt P03070); assay type: functional, Betapolyomavirus macacae;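 note: Confirmatory-stage PubChem screen for compounds that inhibit SV40 T antigen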
[1] = target: T1, Replicative DNA helicase DnaB (Mycobacterium tuberculosis, UniProt P9WMR3); experiment: DnaB intein splicing inhibitors, dose response, biochemical, cell-free fluorescence (AID 449749); assay type: functional
T1 sequence (P9WMR3 whole entry): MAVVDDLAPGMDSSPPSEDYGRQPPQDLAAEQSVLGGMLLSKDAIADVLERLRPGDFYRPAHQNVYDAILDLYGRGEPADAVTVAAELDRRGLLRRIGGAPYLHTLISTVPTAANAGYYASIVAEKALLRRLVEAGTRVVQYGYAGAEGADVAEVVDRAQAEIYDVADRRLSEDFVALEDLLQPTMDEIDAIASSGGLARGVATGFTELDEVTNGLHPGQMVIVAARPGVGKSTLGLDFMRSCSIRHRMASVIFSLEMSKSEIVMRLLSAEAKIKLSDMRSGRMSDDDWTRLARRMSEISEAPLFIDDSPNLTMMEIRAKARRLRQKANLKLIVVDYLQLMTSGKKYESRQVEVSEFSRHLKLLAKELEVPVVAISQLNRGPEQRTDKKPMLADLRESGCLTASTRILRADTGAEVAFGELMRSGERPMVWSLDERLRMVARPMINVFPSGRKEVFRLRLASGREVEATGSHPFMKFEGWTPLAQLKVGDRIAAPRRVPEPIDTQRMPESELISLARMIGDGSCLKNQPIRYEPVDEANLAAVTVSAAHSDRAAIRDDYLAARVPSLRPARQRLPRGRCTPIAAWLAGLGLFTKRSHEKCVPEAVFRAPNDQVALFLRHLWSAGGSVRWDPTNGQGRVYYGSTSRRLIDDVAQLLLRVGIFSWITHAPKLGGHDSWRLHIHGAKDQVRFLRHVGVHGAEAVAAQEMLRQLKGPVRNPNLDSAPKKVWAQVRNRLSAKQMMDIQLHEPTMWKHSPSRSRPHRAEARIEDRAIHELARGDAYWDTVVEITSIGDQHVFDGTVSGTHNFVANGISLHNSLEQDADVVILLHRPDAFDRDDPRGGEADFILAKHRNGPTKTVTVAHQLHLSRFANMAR

Protein RecA = target: T2, Protein RecA (Mycobacterium tuberculosis, UniProt P9WHJ3); experiment: Fluorescence Cell-Free Homogeneous Dose Retest to Identify Inhibitors of RecA-Intein Splicing Activity. [Related pubchem assays (depositor defined):AID2097, AID2223, AID489010, AID492950]; assay type: functional
T2 sequence (P9WHJ3 whole entry): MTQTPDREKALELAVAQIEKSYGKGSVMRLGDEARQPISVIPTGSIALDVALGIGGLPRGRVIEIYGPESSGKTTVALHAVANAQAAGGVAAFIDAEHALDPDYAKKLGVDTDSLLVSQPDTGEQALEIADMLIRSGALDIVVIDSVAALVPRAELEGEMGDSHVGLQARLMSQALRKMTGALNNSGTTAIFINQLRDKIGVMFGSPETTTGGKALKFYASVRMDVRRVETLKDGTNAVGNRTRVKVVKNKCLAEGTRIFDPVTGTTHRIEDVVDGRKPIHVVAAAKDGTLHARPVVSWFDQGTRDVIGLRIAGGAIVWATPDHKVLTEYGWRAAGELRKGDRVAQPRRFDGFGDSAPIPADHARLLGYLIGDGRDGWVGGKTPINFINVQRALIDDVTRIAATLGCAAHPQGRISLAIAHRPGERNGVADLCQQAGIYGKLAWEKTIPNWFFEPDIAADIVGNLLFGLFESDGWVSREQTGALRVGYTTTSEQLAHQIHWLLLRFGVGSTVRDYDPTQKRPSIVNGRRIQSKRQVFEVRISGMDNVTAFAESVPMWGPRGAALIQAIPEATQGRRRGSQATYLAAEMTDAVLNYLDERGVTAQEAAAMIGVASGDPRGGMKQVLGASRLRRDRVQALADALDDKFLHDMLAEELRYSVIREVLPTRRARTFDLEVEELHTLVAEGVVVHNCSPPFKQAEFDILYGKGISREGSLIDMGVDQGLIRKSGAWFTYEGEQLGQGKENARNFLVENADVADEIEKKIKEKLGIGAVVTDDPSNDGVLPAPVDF

[2] = target: Intestinal-type alkaline phosphatase (Mus musculus, UniProt P24822); experiment: PubChem AID 488785; assay type: functional
Intestinal-type alkaline phosphatase (Mus musculus, UniProt P24822), sequence (P24822 whole entry): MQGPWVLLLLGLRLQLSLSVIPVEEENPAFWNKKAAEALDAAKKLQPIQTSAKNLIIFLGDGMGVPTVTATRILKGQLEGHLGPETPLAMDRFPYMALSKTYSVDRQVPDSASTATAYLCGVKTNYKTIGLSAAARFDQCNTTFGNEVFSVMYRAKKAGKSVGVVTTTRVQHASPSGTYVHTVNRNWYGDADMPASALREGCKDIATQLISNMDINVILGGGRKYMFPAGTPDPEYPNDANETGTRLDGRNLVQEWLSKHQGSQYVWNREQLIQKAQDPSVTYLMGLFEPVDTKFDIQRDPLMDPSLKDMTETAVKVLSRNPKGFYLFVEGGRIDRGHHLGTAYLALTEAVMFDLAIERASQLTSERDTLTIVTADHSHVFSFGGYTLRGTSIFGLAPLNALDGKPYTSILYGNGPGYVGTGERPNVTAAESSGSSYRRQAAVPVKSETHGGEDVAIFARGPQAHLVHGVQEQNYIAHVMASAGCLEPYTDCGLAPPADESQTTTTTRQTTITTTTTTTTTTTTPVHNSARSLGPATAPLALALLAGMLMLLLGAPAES

[3] = target: Intestinal-type alkaline phosphatase (Homo sapiens, UniProt P09923); experiment: inhibition of human intestinal alkaline phosphatase – biochemical, dose response (AID 488876); assay type: functional
Intestinal-type alkaline phosphatase (Homo sapiens, UniProt P09923), sequence (P09923 whole entry): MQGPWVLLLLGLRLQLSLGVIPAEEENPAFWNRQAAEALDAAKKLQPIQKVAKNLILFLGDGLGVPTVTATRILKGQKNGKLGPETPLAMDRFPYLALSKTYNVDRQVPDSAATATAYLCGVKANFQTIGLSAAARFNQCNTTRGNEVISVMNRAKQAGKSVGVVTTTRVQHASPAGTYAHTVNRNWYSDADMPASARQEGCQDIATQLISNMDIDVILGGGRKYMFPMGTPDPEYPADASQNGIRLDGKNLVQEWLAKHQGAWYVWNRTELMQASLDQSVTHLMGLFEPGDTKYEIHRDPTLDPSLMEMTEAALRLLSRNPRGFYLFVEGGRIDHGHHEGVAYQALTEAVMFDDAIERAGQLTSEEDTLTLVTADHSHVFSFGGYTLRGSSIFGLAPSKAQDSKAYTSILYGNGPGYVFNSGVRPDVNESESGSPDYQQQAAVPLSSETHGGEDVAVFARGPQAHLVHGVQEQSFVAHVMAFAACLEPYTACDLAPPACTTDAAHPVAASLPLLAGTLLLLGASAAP

[4] = target: T3, Alkaline phosphatase, tissue-nonspecific isozyme (Homo sapiens, UniProt P05186); experiment: TNAP enzyme inhibition by screening hits, dose response, selectivity assay for mouse IAP inhibitor project, biochemical, human TNAP, uHTS hits (AID 488906); assay type: functional
T3 sequence (P05186 whole entry): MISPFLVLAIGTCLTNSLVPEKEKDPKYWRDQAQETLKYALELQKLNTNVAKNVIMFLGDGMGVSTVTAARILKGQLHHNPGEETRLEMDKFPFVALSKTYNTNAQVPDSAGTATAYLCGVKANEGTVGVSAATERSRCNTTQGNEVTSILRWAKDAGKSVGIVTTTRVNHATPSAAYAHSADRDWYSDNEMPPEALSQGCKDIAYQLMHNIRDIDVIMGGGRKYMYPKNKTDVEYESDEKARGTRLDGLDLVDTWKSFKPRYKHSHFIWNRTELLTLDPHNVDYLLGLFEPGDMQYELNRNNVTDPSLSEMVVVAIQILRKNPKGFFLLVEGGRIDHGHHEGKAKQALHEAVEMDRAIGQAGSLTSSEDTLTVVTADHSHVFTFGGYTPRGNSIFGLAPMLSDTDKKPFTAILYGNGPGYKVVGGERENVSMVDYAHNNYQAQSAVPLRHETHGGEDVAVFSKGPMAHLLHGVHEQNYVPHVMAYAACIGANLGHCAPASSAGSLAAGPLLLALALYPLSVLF

[5] = target: Opioid receptors; mu & delta (Homo sapiens, UniProt P41143+P35372); experiment: OPRM1-OPRD1 heterodimer agonist potency – cell-based, luminescence, dose response (AID 588407); assay type: functional
Mu-type opioid receptor = Mu-type opioid receptor (Homo sapiens, UniProt P35372); experiment: (§1) Counterscreen for agonists of heterodimerization of the mu 1 (OPRM1) and delta 1 (OPRD1) opioid receptors: Luminescence-based cell-based high throughput dose response assay to identify agonists of OPRM1 homodimerization.; assay type: functional
Mu-type opioid receptor, sequence (P35372 whole entry): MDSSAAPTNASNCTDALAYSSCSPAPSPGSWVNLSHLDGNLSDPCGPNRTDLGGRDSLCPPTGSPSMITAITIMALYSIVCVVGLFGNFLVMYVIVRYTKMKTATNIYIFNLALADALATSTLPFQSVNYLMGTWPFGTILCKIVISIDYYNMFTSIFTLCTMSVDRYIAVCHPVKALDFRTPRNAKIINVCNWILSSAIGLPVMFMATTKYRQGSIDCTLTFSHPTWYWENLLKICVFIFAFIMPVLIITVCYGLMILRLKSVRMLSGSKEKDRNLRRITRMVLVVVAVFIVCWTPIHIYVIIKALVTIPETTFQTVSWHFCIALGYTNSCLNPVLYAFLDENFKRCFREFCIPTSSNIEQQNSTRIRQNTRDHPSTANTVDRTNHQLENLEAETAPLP

[6] = target: Delta-type opioid receptor (Homo sapiens, UniProt P41143); experiment: as §1, with “of OPRD1” for “of OPRM1”, “homodimerization. [Related pubchem assays (depositor defined):AID504326, AID504355, AID504692, AID504904, AID504905]” for “homodimerization.”; assay type: functional
Delta-type opioid receptor, sequence (P41143 whole entry): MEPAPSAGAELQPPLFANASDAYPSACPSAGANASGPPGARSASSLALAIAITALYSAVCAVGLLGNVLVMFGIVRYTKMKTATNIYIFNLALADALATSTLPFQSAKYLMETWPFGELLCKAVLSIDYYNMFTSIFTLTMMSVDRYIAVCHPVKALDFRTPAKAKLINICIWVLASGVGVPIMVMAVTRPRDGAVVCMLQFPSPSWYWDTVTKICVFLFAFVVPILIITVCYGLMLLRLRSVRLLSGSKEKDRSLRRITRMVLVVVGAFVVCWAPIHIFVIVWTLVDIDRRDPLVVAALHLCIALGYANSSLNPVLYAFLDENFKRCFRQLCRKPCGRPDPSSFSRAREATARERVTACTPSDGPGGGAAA

[7] = target: 5-hydroxytryptamine receptor 5A (Homo sapiens, UniProt P47898); experiment: Counterscreen for agonists of OPRM1-OPRD1 heterodimerization: luminescence-based cell-based high throughput dose response assay to identify agonists of 5-hydroxytryptamine (serotonin) 5A receptor (HTR5A). [Related pubchem assays (depositor defined):AID504326, AID504355, AID504692, AID504904, AID504905]; assay type: functional
5-hydroxytryptamine receptor 5A, sequence (P47898 whole entry): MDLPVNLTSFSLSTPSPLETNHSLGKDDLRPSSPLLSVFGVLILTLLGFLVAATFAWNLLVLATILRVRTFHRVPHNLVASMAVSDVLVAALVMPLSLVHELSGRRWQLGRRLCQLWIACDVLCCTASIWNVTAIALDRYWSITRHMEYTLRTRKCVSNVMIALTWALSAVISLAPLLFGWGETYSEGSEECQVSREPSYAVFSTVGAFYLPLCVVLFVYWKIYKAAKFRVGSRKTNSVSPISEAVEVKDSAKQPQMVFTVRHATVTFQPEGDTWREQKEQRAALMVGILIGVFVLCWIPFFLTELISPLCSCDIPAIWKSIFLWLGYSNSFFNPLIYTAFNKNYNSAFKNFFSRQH

Large T antigen, sequence (P03070 whole entry): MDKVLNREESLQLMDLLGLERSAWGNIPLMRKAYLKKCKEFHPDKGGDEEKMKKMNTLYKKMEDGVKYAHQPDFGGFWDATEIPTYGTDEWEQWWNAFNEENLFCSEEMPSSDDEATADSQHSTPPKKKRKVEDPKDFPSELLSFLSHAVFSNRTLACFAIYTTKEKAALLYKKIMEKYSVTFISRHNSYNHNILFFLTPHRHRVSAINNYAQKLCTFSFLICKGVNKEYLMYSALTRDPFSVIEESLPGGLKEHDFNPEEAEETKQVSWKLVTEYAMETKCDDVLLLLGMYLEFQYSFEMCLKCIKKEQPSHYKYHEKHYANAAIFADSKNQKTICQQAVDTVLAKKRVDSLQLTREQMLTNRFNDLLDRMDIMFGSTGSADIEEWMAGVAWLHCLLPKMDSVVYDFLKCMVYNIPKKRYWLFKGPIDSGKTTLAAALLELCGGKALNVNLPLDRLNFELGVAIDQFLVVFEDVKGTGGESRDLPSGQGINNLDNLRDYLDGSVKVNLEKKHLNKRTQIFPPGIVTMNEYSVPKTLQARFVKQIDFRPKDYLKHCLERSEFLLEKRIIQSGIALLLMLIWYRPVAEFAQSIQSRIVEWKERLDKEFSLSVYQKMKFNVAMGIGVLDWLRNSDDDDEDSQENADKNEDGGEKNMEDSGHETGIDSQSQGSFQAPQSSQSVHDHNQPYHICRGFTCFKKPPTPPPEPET

Structure (SMILES) | IC50 (Large T antigen) | AC50 [1] | EC50 (Protein RecA) | IC50 [2] | IC50 [3] | IC50 [4] | EC50 [5] [µM] | EC50 (Mu-type opioid receptor) | EC50 [6] | EC50 [7]
Oc1cc(O)c2c(c1)O[C@H](c1ccc(O)c(O)c1)[C@@H](O)C2 | 11.4 µM (active) | 22.2 µM (active) | 4.11 µM (active) | 15.5 µM (active) | > 100 µM (inactive) | 37.1 µM (active) | – | – | – | –
c1ccc(C2[C@H]3CN(Cc4cccnc4)[C@H](c4ccccc4)C34CC2(c2cccnc2)C4)cc1 (some centres not stated) | – | 3.72 µM (active) | 16.7 µM (active) | – | – | – | > 3.424 | > 92.5 µM (inactive) | 3.21 µM (active) | > 92.5 µM (inactive)
